US20100105655A1, “NOVEL COMPOUNDS 515” (ASTRAZENECA AB, priority 2008, published 2010)

Biological target: T1, IGFR kinase (Homo sapiens, UniProt P08069)
T1 construct: purchased Millipore
Assay: Enzyme assay (c), IGFR kinase, Caliper LabChip
Type: biochemical
Conditions: 30 nM IGFR kinase, 6 uM ATP, 3 uM peptide mix; read-out: IGFR IC50

T1 sequence (P08069 31-1367): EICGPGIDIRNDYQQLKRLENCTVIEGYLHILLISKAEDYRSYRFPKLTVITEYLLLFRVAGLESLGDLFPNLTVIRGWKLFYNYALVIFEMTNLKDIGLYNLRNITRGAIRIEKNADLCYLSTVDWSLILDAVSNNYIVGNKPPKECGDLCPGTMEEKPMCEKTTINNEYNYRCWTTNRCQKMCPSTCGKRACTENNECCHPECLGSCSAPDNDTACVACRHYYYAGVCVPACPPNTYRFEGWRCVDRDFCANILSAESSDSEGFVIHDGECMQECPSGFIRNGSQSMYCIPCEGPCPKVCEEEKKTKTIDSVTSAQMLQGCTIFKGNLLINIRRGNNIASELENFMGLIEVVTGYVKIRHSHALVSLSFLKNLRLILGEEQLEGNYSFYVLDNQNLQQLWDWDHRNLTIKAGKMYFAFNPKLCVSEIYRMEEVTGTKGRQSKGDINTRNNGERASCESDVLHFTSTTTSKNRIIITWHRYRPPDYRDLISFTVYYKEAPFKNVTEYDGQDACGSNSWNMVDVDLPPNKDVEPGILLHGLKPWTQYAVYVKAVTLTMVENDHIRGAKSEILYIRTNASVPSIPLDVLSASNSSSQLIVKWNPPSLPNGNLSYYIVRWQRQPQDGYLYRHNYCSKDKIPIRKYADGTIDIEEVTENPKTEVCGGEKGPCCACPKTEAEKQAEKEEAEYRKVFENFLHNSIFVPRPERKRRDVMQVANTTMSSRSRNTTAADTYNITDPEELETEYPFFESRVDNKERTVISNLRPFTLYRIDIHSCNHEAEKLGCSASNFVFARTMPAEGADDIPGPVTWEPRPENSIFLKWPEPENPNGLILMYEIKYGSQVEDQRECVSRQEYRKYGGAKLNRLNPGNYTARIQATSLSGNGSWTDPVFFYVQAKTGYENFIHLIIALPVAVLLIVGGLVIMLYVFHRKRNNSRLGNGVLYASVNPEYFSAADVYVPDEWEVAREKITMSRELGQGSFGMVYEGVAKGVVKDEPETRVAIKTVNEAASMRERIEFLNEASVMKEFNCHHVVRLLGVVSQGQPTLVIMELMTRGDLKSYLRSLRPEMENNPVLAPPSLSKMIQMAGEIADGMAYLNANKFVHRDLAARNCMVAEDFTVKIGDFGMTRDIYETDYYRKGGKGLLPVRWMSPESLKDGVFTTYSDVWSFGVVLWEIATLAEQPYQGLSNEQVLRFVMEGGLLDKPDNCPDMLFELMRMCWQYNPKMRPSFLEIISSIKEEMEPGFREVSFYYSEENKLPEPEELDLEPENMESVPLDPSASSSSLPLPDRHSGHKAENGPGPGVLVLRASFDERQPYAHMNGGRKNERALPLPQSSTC

Compared with `COc1cc(N2CCN(C(C)=O)CC2)ccc1Nc1ncc(C)c(-c2cnc3ccccn23)n1` [Example 97, 1-[4-[4-[(4-imidazo[1,2-a]pyridin-3-yl-5-methyl-pyrimidin-2-yl)amino]-3-methoxy-phenyl]piperazin-1-yl]ethanone], `COc1cc(N2CCN(C(C)=O)CC2)ccc1Nc1ncc(C(F)(F)F)c(-c2cnc3ccccn23)n1` [Example 107, 1-[4-[4-[[4-imidazo[1,2-a]pyridin-3-yl-5-(trifluoromethyl)pyrimidin-2-yl]amino]-3-methoxy-phenyl]piperazin-1-yl]ethanone] is 3.1-fold lower in IC50: 47 nM for the first, 15 nM for the second. The second is the more potent here.

First: COc1cc(N2CCNCC2)ccc1Nc1ncc(C)c(-c2cnc3ccccn23)n1 [Example 98, 4-imidazo[1,2-a]pyridin-3-yl-N-(2-methoxy-4-piperazin-1-yl-phenyl)-5-methyl-pyrimidin-2-amine]
Second: COc1cc(N2CCOCC2)ccc1Nc1ncc(C)c(-c2cnc3ccccn23)n1 [Example 100, 4-imidazo[1,2-a]pyridin-3-yl-N-(2-methoxy-4-morpholino-phenyl)-5-methyl-pyrimidin-2-amine]
The IC50 of the first is 2.6-fold lower: 22 nM for the first, 57 nM for the second.

Compared with `COc1cc(C2CCN(C(C)=O)CC2)ccc1Nc1ncc(C)c(-c2cnc3ccccn23)n1` [Example 99, 1-[4-[4-[(4-imidazo[1,2-a]pyridin-3-yl-5-methyl-pyrimidin-2-yl)amino]-3-methoxy-phenyl]-1-piperidyl]ethanone], `COc1cc(C2CCN(C(C)=O)CC2)ccc1Nc1ncc(C(F)(F)F)c(-c2cnc3ccccn23)n1` [Example 108, 1-[4-[4-[[4-imidazo[1,2-a]pyridin-3-yl-5-(trifluoromethyl)pyrimidin-2-yl]amino]-3-methoxy-phenyl]-1-piperidyl]ethanone] is 1.7-fold lower in IC50: 24 nM for the first, 14 nM for the second.

Going from `COc1cc(N2CCN(CCO)CC2)ccc1Nc1ncc(C)c(-c2cnc3ccccn23)n1` [Example 101, 2-[4-[4-[(4-imidazo[1,2-a]pyridin-3-yl-5-methyl-pyrimidin-2-yl)amino]-3-methoxy-phenyl]piperazin-1-yl]ethanol] to `COc1cc(N2CCN(C[C@H](C)O)CC2)ccc1Nc1ncc(C)c(-c2cnc3ccccn23)n1` [Example 104, (2S)-1-[4-[4-[(4-imidazo[1,2-a]pyridin-3-yl-5-methyl-pyrimidin-2-yl)amino]-3-methoxy-phenyl]piperazin-1-yl]propan-2-ol], the IC50 falls from 235 nM to 29 nM (8.1-fold). The second is the more potent here.

`COc1cc(OC[C@H]2CCCN2)ccc1Nc1ncc(C)c(-c2cnc3ccccn23)n1` [Example 102, 4-imidazo[1,2-a]pyridin-3-yl-N-[2-methoxy-4-[[(2R)-pyrrolidin-2-yl]methoxy]phenyl]-5-methyl-pyrimidin-2-amine] and `COc1cc(OC2CCN(C(C)=O)CC2)ccc1Nc1ncc(C)c(-c2cnc3ccccn23)n1` [Example 103, 1-[4-[4-[(4-imidazo[1,2-a]pyridin-3-yl-5-methyl-pyrimidin-2-yl)amino]-3-methoxy-phenoxy]-1-piperidyl]ethanone] are within 1.5-fold of each other in IC50: 54 nM for the first, 77 nM for the second.

`COc1cc(N2CCN(C[C@@H](C)O)CC2)ccc1Nc1ncc(C)c(-c2cnc3ccccn23)n1` [Example 105, (2R)-1-[4-[4-[(4-imidazo[1,2-a]pyridin-3-yl-5-methyl-pyrimidin-2-yl)amino]-3-methoxy-phenyl]piperazin-1-yl]propan-2-ol] and `COc1cc(N2CCN(CC(C)(C)O)CC2)ccc1Nc1ncc(C)c(-c2cnc3ccccn23)n1` [Example 106, 1-[4-[4-[(4-imidazo[1,2-a]pyridin-3-yl-5-methyl-pyrimidin-2-yl)amino]-3-methoxy-phenyl]piperazin-1-yl]-2-methyl-propan-2-ol] are within 1.5-fold of each other in IC50: 26 nM for the first, 28 nM for the second.

`COc1cc(N2CCN(CCO)CC2)ccc1Nc1ncc(C(F)(F)F)c(-c2cnc3ccccn23)n1` [Example 109, 2-[4-[4-[[4-imidazo[1,2-a]pyridin-3-yl-5-(trifluoromethyl)pyrimidin-2-yl]amino]-3-methoxy-phenyl]piperazin-1-yl]ethanol] showed an IC50 of 16 nM.
